These results are taken from ChEMBL document CHEMBL5726876, “NHE3-binding compounds and methods for inhibiting phosphate transport” (2019).

A short description of the assay: Cell-based activity under Prompt Conditions: Cell-based activity under Prompt Conditions. Rat or human NHE3-mediated Na+-dependent H+ antiport was measured using a modification of the pH sensitive dye method originally reported by Paradiso (PNAS USA. 81:7436-7440, 1984). Opossum kidney (OK) cells were obtained from the ATCC and propagated per their instructions. The rat NHE3 gene (GenBank M85300) or the human NHE3 gene (GenBank NM_004174.1) was introduced into OK cells via electroporation, and cells were seeded into 96 well plates and grown overnight. Medium was aspirated from the wells, cells were washed twice with NaCl-HEPES buffer (100 mM NaCl, 50 mM HEPES, 10 mM glucose, 5 mM KCl, 2 mM CaCl2, 1 mM MgCl2, pH 7.4), then incubated for 30 min at room temperature with NH4Cl-HEPES buffer (20 mM NH4Cl, 80 mM NaCl, 50 mM HEPES, 5 mM KCl, 2 mM CaCl2, 1 mM MgCl2, pH 7.4) containing 5 μM bis(acetoxymethyl) 3,3′-(3′,6′-bis(acetoxymethoxy)-5-((acetoxymethoxy)carbonyl)-3-oxo-3H-spiro[isobenzofuran-1,9′-xanthene]-2′,7′-diyl)dipropanoate (BCECF-AM).Cells were washed twice with Ammonium free, Na+-free HEPES (100 mM choline, 50 mM HEPES, 10 mM glucose, 5 mM KCl, 2 mM CaCl2, 1 mM MgCl2, pH 7.4) and incubated in the same buffer for 10 minutes at room temperature to lower intracellular pH. […] Initial rates were plotted as the average 2 or more replicates, and pIC50 values were estimated using GraphPad Prism.
On to `CN1Cc2c(Cl)cc(Cl)cc2[C@H](c2cccc(S(=O)(=O)NCCOCCOCCNC(=O)CCC(CCC(=O)NCCOCCOCCNS(=O)(=O)c3cccc([C@@H]4CN(C)Cc5c(Cl)cc(Cl)cc54)c3)(CCC(=O)NCCOCCOCCNS(=O)(=O)c3cccc([C@@H]4CN(C)Cc5c(Cl)cc(Cl)cc54)c3)NC(=O)Cc3nnn[nH]3)c2)C1`, for which the IC50 (as a rule, the point on the concentration scale where inhibition reaches its midpoint) was 200 nM.

As to `CN(C)[C@H]1Cc2c(Cl)cc(Cl)cc2[C@@H]1Oc1ccc(S(=O)(=O)NCCOCCOCCNC(=O)COCC(=O)NCCOCCOCCNS(=O)(=O)c2ccc(O[C@H]3c4cc(Cl)cc(Cl)c4C[C@@H]3N(C)C)cc2)cc1`, the IC50 is 7.94 nM.

On to `CN(C)[C@H]1Cc2c(Cl)cc(Cl)cc2[C@@H]1Oc1ccc(S(=O)(=O)NCCOCCOCCNC(=O)CCC(=O)NCCOCCOCCNS(=O)(=O)c2ccc(O[C@H]3c4cc(Cl)cc(Cl)c4C[C@@H]3N(C)C)cc2)cc1`, for which the IC50 is 3.98 nM.

For the compound `CN(C)[C@H]1Cc2c(Cl)cc(Cl)cc2[C@@H]1Oc1ccc(S(=O)(=O)NCCOCCOCCNC(=O)Nc2ccc(NC(=O)NCCOCCOCCNS(=O)(=O)c3ccc(O[C@H]4c5cc(Cl)cc(Cl)c5C[C@@H]4N(C)C)cc3)cc2)cc1`, the IC50 was less than 10000 nM.

On to `CN1Cc2c(Cl)cc(Cl)cc2[C@H](c2cccc(S(=O)(=O)NCCOCCOCCNC(=O)CCC(CCC(=O)NCCOCCOCCNS(=O)(=O)c3cccc([C@@H]4CN(C)Cc5c(Cl)cc(Cl)cc54)c3)(CCC(=O)NCCOCCOCCNS(=O)(=O)c3cccc([C@@H]4CN(C)Cc5c(Cl)cc(Cl)cc54)c3)NC(=O)NCCS(=O)(=O)O)c2)C1`, for which the IC50 is 20 nM.

In the case of `CN(C)[C@H]1Cc2c(Cl)cc(Cl)cc2[C@@H]1Oc1ccc(S(=O)(=O)NCCOCCOCCNC(=O)[C@H](O)[C@@H](O)C(=O)NCCOCCOCCNS(=O)(=O)c2ccc(O[C@H]3c4cc(Cl)cc(Cl)c4C[C@@H]3N(C)C)cc2)cc1`, the IC50 was 2.51 nM.

With `CN1Cc2c(Cl)cc(Cl)cc2[C@H](c2cccc(S(=O)(=O)NCCOCCOCCNC(=O)NCCCC(N)(CCCNC(=O)NCCOCCOCCNS(=O)(=O)c3cccc([C@@H]4CN(C)Cc5c(Cl)cc(Cl)cc54)c3)CCCNC(=O)NCCOCCOCCNS(=O)(=O)c3cccc([C@@H]4CN(C)Cc5c(Cl)cc(Cl)cc54)c3)c2)C1`, the IC50 is 100 nM.

As for `CN1Cc2c(Cl)cc(Cl)cc2[C@H](c2cccc(S(=O)(=O)N(CCO)CCOCCOCCNC(=O)NCCCN(CCCNC(=O)NCCOCCOCCN(CCO)S(=O)(=O)c3cccc([C@@H]4CN(C)Cc5c(Cl)cc(Cl)cc54)c3)CCCNC(=O)NCCOCCOCCN(CCO)S(=O)(=O)c3cccc([C@@H]4CN(C)Cc5c(Cl)cc(Cl)cc54)c3)c2)C1`, the IC50 is 15.8 nM.

Take `CN1Cc2c(Cl)cc(Cl)cc2[C@H](c2cccc(S(=O)(=O)NCCOCCOCCNC(=O)CCC(CCC(=O)NCCOCCOCCNS(=O)(=O)c3cccc([C@@H]4CN(C)Cc5c(Cl)cc(Cl)cc54)c3)(CCC(=O)NCCOCCOCCNS(=O)(=O)c3cccc([C@@H]4CN(C)Cc5c(Cl)cc(Cl)cc54)c3)NC(=O)Cn3ccnc3)c2)C1`: the IC50 was 158 nM.

As for `CN(C)[C@H]1Cc2c(Cl)cc(Cl)cc2[C@@H]1Oc1ccc(S(=O)(=O)NCCOCCOCCNC(=O)C(C)(C)C(=O)NCCOCCOCCNS(=O)(=O)c2ccc(O[C@H]3c4cc(Cl)cc(Cl)c4C[C@@H]3N(C)C)cc2)cc1`, the IC50 is 5.01 nM.

Take `CN1Cc2c(Cl)cc(Cl)cc2[C@H](c2cccc(S(=O)(=O)NCCOCCOCCNC(=O)NCCCC(CCCNC(=O)NCCOCCOCCNS(=O)(=O)c3cccc([C@@H]4CN(C)Cc5c(Cl)cc(Cl)cc54)c3)(CCCNC(=O)NCCOCCOCCNS(=O)(=O)c3cccc([C@@H]4CN(C)Cc5c(Cl)cc(Cl)cc54)c3)NC(=O)CCC(=O)O)c2)C1`: the IC50 is 20 nM.

`CN1CCN(C(=O)NC(CCC(=O)NCCOCCOCCNS(=O)(=O)c2cccc([C@@H]3CN(C)Cc4c(Cl)cc(Cl)cc43)c2)(CCC(=O)NCCOCCOCCNS(=O)(=O)c2cccc([C@@H]3CN(C)Cc4c(Cl)cc(Cl)cc43)c2)CCC(=O)NCCOCCOCCNS(=O)(=O)c2cccc([C@@H]3CN(C)Cc4c(Cl)cc(Cl)cc43)c2)CC1`: the IC50 was 126 nM.
